Patent US8598078B2, “Condensed anthran I lami de derivatives as insecticides” (Syngenta Crop Protection, LLC, priority 2007, dated 2013)
Read-outs that look alike come from different tables or passages of the source.

Assays:
Type in all cases: in vivo
[1] = test system: Plutella xylostella (diamond back moth); assay: Plutella xylostella (larvicide, feeding/residual contact activity, preventive), artificial diet MTP; conditions: 120 h, read-out: activity (larval mortality, antifeedant, growth regulation)
Experimental: Plutella xylostella (Diamond Back Moth)
(§1) (Larvicide, Feeding/Residual Contact Activity, Preventive)
24-well microtiter plate (MTP) with artificial diet was treated with test solutions by pipetting. After drying, the MTP's were infested with larvae (L2) (10-15 per well). After an incubation period of 5 days, samples were checked for larval mortality, antifeedant and growth regulation.

[2] = test system: Spodoptera littoralis (Egyptian cotton leafworm); assay: Activity against Spodoptera littoralis (larvicide, feeding/residual contact activity, preventive), cotton leaf discs; conditions: foliar, 72 h, read-out: activity (mortality, repellent effect, feeding behaviour, growth regulation)
From the text: Activity Against Spodoptera littoralis (Egyptian Cotton Leafworm)
as §1
Cotton leaf discs were placed on agar in a 24-well microtiter plate and sprayed with test solutions. After drying, the leaf discs were infested with 5 L1 larvae. The samples were checked for mortality, repellent effect, feeding behaviour, and growth regulation 3 days after treatment.

[3] = test system: Myzus persicae (green peach aphid); assay: Activity against Myzus persicae (mixed population, feeding/residual contact activity, preventive), sunflower leaf discs; conditions: foliar, 144 h, read-out: activity (mortality and special effects)
Experimental: (§2) Activity Against Myzus persicae (Green Peach Aphid)
(§3) (Mixed Population, Feeding/Residual Contact Activity, Preventive)
(§4) Sunflower leaf discs were placed on agar in a 24-well microtiter plate and sprayed with test solutions. After drying, the leaf discs were infested with an aphid population of mixed ages. After an incubation period of 6 days, samples were checked for mortality and special effects (e.g. phytotoxicity).

[4] = test system: Myzus persicae (green peach aphid); assay: Activity against Myzus persicae (mixed population, systemic/feeding activity, curative), pea seedling roots in test solution; conditions: 144 h, read-out: activity (mortality and special effects on the plant)
From the text: as §2
(Mixed Population, Systemic/Feeding Activity, Curative)
Roots of pea seedlings, infested with an aphid population of mixed ages, were placed directly in the test solutions. 6 days after introduction, samples were checked for mortality and special effects on the plant.

[5] = test system: Thrips tabaci (onion thrips); assay: Activity against Thrips tabaci (mixed population, feeding/residual contact activity, preventive), sunflower leaf discs; conditions: foliar, 144 h, read-out: activity (mortality and special effects)
Experimental: Activity Against Thrips tabaci (Onion Thrips)
as §3
as §4, with “a thrips” for “an aphid”

[6] = test system: Heliothis virescens (tobacco budworm); assay: Activity against Heliothis virescens (ovo-larvicide, feeding/contact activity, curative), eggs on artificial diet; conditions: read-out: activity (egg mortality, larval mortality, growth regulation)
Experimental: Activity Against Heliothis virescens (Tobacco Budworm)
(Ovo-Larvicide, Feeding/Contact Activity, Curative)
Eggs (0-24 h old) were placed in 24-well microtiter plate on artificial diet and treated with test solutions by pipetting. After an incubation period of 4 days, samples were checked for egg mortality, larval mortality, and growth regulation.

[7] = test system: Diabrotica balteata (corn root worm); assay: Diabrotica balteata (larvicide, feeding/residual contact activity, preventive), artificial diet MTP; conditions: 120 h, read-out: activity (larval mortality, antifeedant, growth regulation)
Experimental: Diabrotica balteata (Corn Root Worm)
as §1
24-well microtiter plate (MTP) with artificial diet was treated with test solutions by pipetting. After drying, the MTP's were infested with larvae (L2) (6-10 per well). After an incubation period of 5 days, samples were checked for larval mortality, antifeedant and growth regulation.

[8] = 400 ppm, L2 larvae on treated artificial diet, 5 days incubation
[9] = 400 ppm, L1 larvae on sprayed cotton leaf discs, 3 days after treatment
[10] = 400 ppm, mixed-age aphids on sprayed sunflower leaf discs, 6 days incubation
[11] = 400 ppm, eggs 0-24 h old on artificial diet, 4 days incubation
[12] = 400 ppm, systemic, roots of infested pea seedlings in test solution, 6 days

Measured: mortality at 400 ppm

COCn1cc2cc(C)c(NC(=O)c3cc(OC)nn3-c3ncccc3Cl)c(C(=O)NC(C)C)c2n1 [P.3]
> 80%: [1] | [2] | [3] | [4] | [5] | [6]

COCn1cc2cc(Cl)c(NC(=O)c3cc(C(F)(F)F)nn3-c3ncccc3Cl)c(C(=O)NC(C)C)c2n1 [P.6]
> 80%: [1] | [2] | [7] | [3] | [4] | [5] | [6]

C#CCn1cc2cc(C)c(NC(=O)c3cc(OC)nn3-c3ncccc3Cl)c(C(=O)NC(C)C)c2n1 [P.7]
> 80%: [1] | [2] | [7] | [3] | [4] | [5] | [6]

C=CCn1cc2cc(C)c(NC(=O)c3cc(OC)nn3-c3ncccc3Cl)c(C(=O)NC(C)C)c2n1 [P.8]
> 80%: [1] | [2] | [7] | [3] | [4] | [5] | [6]

COc1cc(C(=O)Nc2c(C)cc3cn(CC(F)(F)F)nc3c2C(=O)NC(C)C)n(-c2ncccc2Cl)n1 [P.10]
> 80%: [1] | [2] | [3] | [5] | [6]

COC(=O)N(C)Cn1cc2cc(C)c(NC(=O)c3cc(OC)nn3-c3ncccc3Cl)c(C(=O)NC(C)C)c2n1 [P.11]
> 80%: [1] | [2] | [7] | [3] | [4] | [5] | [6]

COCCOCn1ncc2cc(C)c(NC(=O)c3cc(OC)nn3-c3ncccc3Cl)c(C(=O)NC(C)C)c21 [P.13, 6-{[2-(3-chloro-pyridin-2-yl)-5-methoxy-2H-pyrazole-3-carbonyl]-amino}-1-(2-methoxy-ethoxymethyl)-5-methyl-1H-indazole-7-carboxylic acid isopropylamide]
> 80%: [1] | [2] | [3] | [4] | [5] | [6]

COc1cc(C(=O)Nc2c(C)cc3cnn(CC#N)c3c2C(=O)NC(C)C)n(-c2ncccc2Cl)n1 [P.14]
> 80%: [1] | [2] | [3] | [4] | [5] | [6]

COC(=O)N(C)Cn1ncc2cc(C)c(NC(=O)c3cc(OC)nn3-c3ncccc3Cl)c(C(=O)NC(C)C)c21 [P.15]
> 80%: [1] | [2] | [7] | [3] | [4] | [5] | [6]

CCS(=O)(=O)N(C)Cn1cc2cc(C)c(NC(=O)c3cc(OC)nn3-c3ncccc3Cl)c(C(=O)NC(C)C)c2n1 [P.17]
> 80%: [1] | [2] | [3] | [4] | [6]

CCS(=O)(=O)N(C)Cn1ncc2cc(C)c(NC(=O)c3cc(OC)nn3-c3ncccc3Cl)c(C(=O)NC(C)C)c21 [P.18]
> 80%: [1] | [2] | [3] | [4] | [6]

CCCCCCOCCOC(=O)n1cc2cc(C)c(NC(=O)c3cc(OC)nn3-c3ncccc3Cl)c(C(=O)NC(C)C)c2n1 [P.24]
> 80%: [1] | [2] | [7] | [3] | [4] | [6]

CCCCCCCC/C=C\CCCCCCCC(=O)n1cc2cc(C)c(NC(=O)c3cc(OC)nn3-c3ncccc3Cl)c(C(=O)NC(C)C)c2n1 [P.25]
> 80%: [1]; [8] | [2]; [9] | [3]; [10] | [5]; 400 ppm, mixed-age thrips on sprayed sunflower leaf discs, 6 days incubation | [6]; [11]

COc1cc(C(=O)Nc2c(C)cc3cn(C(=O)CC(C)(C)C)nc3c2C(=O)NC(C)C)n(-c2ncccc2Cl)n1 [P.27]
> 80%: [1] | [2] | [7] | [3] | [4] | [5] | [6]

CCCCCCCCCCOCCOC(=O)n1cc2cc(C)c(NC(=O)c3cc(OC)nn3-c3ncccc3Cl)c(C(=O)NC(C)(C)C)c2n1 [P.28]
> 80%: [1]; [8] | [2]; [9] | [3]; [10] | [4]; [12] | [6]; [11]

CCCCCCCCCCCCCCCCCCOCCOC(=O)n1cc2cc(C)c(NC(=O)c3cc(OC)nn3-c3ncccc3Cl)c(C(=O)NC(C)C)c2n1 [P.30]
> 80%: [1]; [8] | [2]; [9] | [7]; [8] | [3]; [10] | [4]; [12] | [6]; [11]

COc1cc(C(=O)Nc2c(C)cc3cn(C(=O)C4(C)CCCCC4)nc3c2C(=O)NC(C)C)n(-c2ncccc2Cl)n1 [P.32]
> 80%: [1] | [2] | [7] | [3] | [4] | [5] | [6]

COc1cc(C(=O)Nc2c(C)cc3cn(Cc4ccccc4)nc3c2C(=O)NC(C)C)n(-c2ncccc2Cl)n1 [P.33]
> 80%: [1] | [2] | [7] | [3] | [5] | [6]

COc1ccc(Cn2cc3cc(C)c(NC(=O)c4cc(OC)nn4-c4ncccc4Cl)c(C(=O)NC(C)C)c3n2)cc1 [P.34, 6-{[2-(3-chloro-pyridin-2-yl)-5-methoxy-2H-pyrazole-3-carbonyl]-amino}-2-(4-methoxy-benzyl)-5-methyl-2H-indazole-7-carboxylic acid isopropyl amide]
> 80%: [1] | [2] | [3] | [4] | [5] | [6]

CCCCN(CCCC)C(=O)n1cc2cc(C)c(NC(=O)c3cc(OC)nn3-c3ncccc3Cl)c(C(=O)NC(C)C)c2n1 [P.35]
> 80%: [1] | [5] | [6]

COc1cc(C(=O)Nc2c(C)cc3cn(C(=O)N(C)c4ccccc4)nc3c2C(=O)NC(C)C)n(-c2ncccc2Cl)n1 [P.36]
> 80%: [1] | [4] | [5] | [6]
